Laboratory results reported in US20230134986A1, “GLUCOSE TRIPTOLIDE CONJUGATES AND USES THEREOF” (The Johns Hopkins University, priority 2020, published 2023).
Entries after “also recorded” stand apart in the source; their conditions may differ.

Assays:
TFIIH = biological target: T1, TFIIH (Homo sapiens, UniProt P19447); assay: DNA-dependent ATPase activity assay of TFIIH; format: biochemical
T1 construct: made in house
Experimental: ATPase activity assay. The TFIIH complex was purified and its DNA-dependent ATPase assay was performed as previously described (Titov et al. (2011) Nat. Chem. Biol. 7:182-88). Briefly, a 10-μl reaction mixture contained 20 mM Tris (pH 7.9), 4 mM MgCl2, 1 μM of ATP, 0.1 μCi [^γ-^32P]ATP (3000 Ci/mmol), 100 μg/ml BSA, 100 nM RNA Polymerase II promoter positive control DNA, 1 nM TFIIH and indicated concentrations of triptolide or its analogs. The reactions were started by either addition of TFIIH for 2 hr and stopped by addition of 2 μl of 0.5 M EDTA. An aliquot of 1 μl reaction mixture was spotted on PEI-cellulose (sigma) and the chromatogram was developed with 0.5 M LiCi and 1 M HCOOH. The percent of ATP hydrolysis was quantified using a Typhoon FLA 9500 Variable Imager (GE Healthcare).

DLD-1 WT cells = assay: DLD-1 WT proliferation under hypoxia or normoxia; format: cell-based; conditions: Homo sapiens; WT DLD-1 cells, hypoxic conditions (1% oxygen)
[1] = Stability of glutriptolides in human serum (HPLC-MS); format: in vitro ADME; conditions: incubation for up to 72 h
Experimental: Stability of glutriptolides in human serum. Human serum (Sigma, 10% in DMEM media) was treated with 10 μM drug (triptolide or glutriptolides) at room temperature for various time points. The incubation was stopped by placing samples on dry ice followed by overnight storage in −80° C. Frozen samples were then lyophilized and reconstituted in DMSO at room temperature for an hour. Samples were centrifuged at 12,000 RPM for 10 minutes and supernatants loaded into an HPLC-MS with the following conditions: (Varian pursuit XR5 Diphenyl 150×4.6 mm; A phase: Millipore water with 0.1% HCOOH; B phase: Acetonitrile with 0.1% HCOOH; 0-6 min: […]; 6-24 min: 5% B-100% B; 24-28 min: 100% B; 28-29 min: 100% B5% B; 29-30 min: 5% B).

PC3 cells = assay: PC3 proliferation under hypoxia or normoxia ([3H]-thymidine incorporation); format: cell-based, human; conditions: for IC50: Homo sapiens, PC-3, 48 h, 48 h post treatment
Experimental: Proliferation and viability assays. [^3H]-thymidine incorporation. HEK293T cells (10,000 cells/well) were seeded into 96-well plates then cultured in DMEM plus 10% FBS and 1% penicillin/streptomycin at 37° C. with 5% CO2 overnight. Drugs were added at indicated concentrations and incubation was continued for an additional 24 h. For hypoxia, PC3 (5,000 cells/well) were exposed to 1% O2 (Airgas) in a humidified hypoxia chamber (Billups-Rothenberg) in 37° C. for 48 h prior to drug exposure for 48 h. Treated cells were then pulsed using an aliquot of 1 μCi of [^3H]-thymidine (Perkin Elmer) per well for an additional 6 h. Radiolabelled cells were harvested onto a printed Filtermat A glass fiber filter (Perkin Elmer) using a Tomtec Harvester 96 Mach III M. Betaplate Scint (Perkin Elmer) scintillation fluid was added to radiolabelled filters followed by scintillation counting on Microbeta2 LumiJET Microplate Counter (Perkin Elmer).

HeLa cells = assay: Apoptosis signaling in HeLa cells (nuclear fragmentation, cytochrome c, caspase 3, PARP1); format: cell-based, human; design: percentage of cells with nuclear fragmentation / cytochrome c release from mitochondria to cytosol: unit of the concentration uncertain; conditions: for percentage of cells with nuclear fragmentation: control 6%
Experimental: (§1) Western blot analysis. Whole cell lysates were prepared by adding lysis buffer [4% SDS, 20% glycerol, 10% 2-mercaptoethanol, 0.004% bromophenol blue, 0.125 M Tris-HCl (pH 6.8)] to the cell pellets for 30 minutes in ice followed by centrifugation at 12,000×g for 10 minutes then boiling for 5 minutes. For isolation of cytosolic and mitochondrial fractions of cytochrome C, cell pellets were resuspended in CLAMI buffer (250 mM sucrose, 70 mM KCl, […] digitonin in 1×PBS, protease inhibitor cocktail (1 tablet/10 ml CLAMI buffer)) then incubated on ice for 5 minutes. After centrifugation at 12,000×g for 5 minutes at 4° C., supernatant (cytoplasmic fraction) was collected and the pellet resuspended in lysis buffer as described above. Proteins were then separated by SDS-PAGE and transferred to nitrocellulose membranes (Bio-Rad). After blocking at room temperature for 1 h, membranes were incubated at 4′C overnight with the primary antibodies including anti-Rpb1 (Santa Cruz Biotechnology), anti-XPB (Biotechne), anti-Actin (Developmental Studies Hybridoma Bank), anti-GAPDH (Santa Cruz Biotechnology), anti-cytochrome C (Santa Cruz Biotechnology), anti-PARP1 (Santa Cruz Biotechnology), anti-cleaved caspase 3 (Cell Signaling Technology), anti-VDAC (ProteinTech), anti-HIF-1[…] (BD sciences), and anti-GLUT1 (Santa Cruz Biotechnology) antibodies followed by incubation with horseradish peroxidase-conjugated anti-mouse or anti-rabbit IgG (GE Healthcare) at room temperature for 2 hours. Antibody-protein complexes were detected using enhanced chemiluminescence (ECL) immunoblotting detection reagent (EMD Millipore).
Immunocytochemistry and cytochemistry. HeLa or PC3 cells (2×10^5) were seeded on a MatTek glass bottom culture dish (Fisher Scientific, Pittsburgh, Pa., USA) and allowed to adhere for 24 h. Cells were then treated with either DMSO or drugs for 6 or 24 h then fixed with 4% paraformaldehyde, permeabilized using 1×PBS with 0.5% triton X 100 then probed for endogenous RNA Polymerase II catalytic subunit Rpb1 or HIF-1α using anti-RNAPII (Santa Cruz Biotechnology) and anti-HIF-1α (BD sciences) antibodies, respectively. Detection was then done using anti-mouse Alexa Fluor 488 (Invitrogen). For nuclear staining, fixed and permeabilized cells were incubated in DAPI (ThermoFisher) or Hoechst 33258 (Sigma) for 30 minutes prior to imaging. Glucose uptake was monitored by incubating cells in 200 μM 2-NBDG (ThermoFisher) for 6 hours prior to fixation. Fluorescence was observed under the Nikon Eclipse TE200 Inverted microscope (Nikon Instruments Inc., Melville, N.Y., USA). ImageJ software (NIH, Bethesda, Md., USA; http://imagej.nih.gov/ij/index.html) was used to measure intracellular protein levels in immuno-cytochemistry samples (Li et al. (2015) Toxicological Sciences: an Official Journal of the Society of Toxicology 143:196-208). Rpb1 levels were measured using the MEASURE feature of ImageJ where all the background signals were subtracted from the intergrated density of nuclear Rpb1.

[2] = system: RPB1 (catalytic subunit of RNAPII); assay: RPB1 (RNAPII) degradation in HeLa cells, immunostaining and western blot; format: cell-based, human; design: endogenous RNAPII (RPB1) level: unit of the concentration uncertain; conditions: 1 (unit uncertain) compound 1, 24 h
Experimental: as §1
Immunocytochemistry and cytochemistry. […] Glucose uptake was monitored by incubating cells in 200 μM 2-NBDG (ThermoFisher) for 6 hours prior to fixation. Fluorescence was observed under the Nikon Eclipse TE200 Inverted microscope (Nikon Instruments Inc., Melville, N.Y., USA). […] Rpb1 levels were measured using the MEASURE feature of ImageJ where all the background signals were subtracted from the intergrated density of nuclear Rpb1.

[3] = HeLa, 3 (unit uncertain) compound 1

CC(C)[C@]12O[C@H]1[C@@H]1O[C@]13[C@]1(O[C@H]1C[C@H]1C4=C(CC[C@@]13C)C(=O)OC4)[C@@H]2OC(=O)CCCO[C@@H]1OC(CO)[C@@H](O)C(O)C1O (stereo in doubt) [Compound 1]
inhibition of ATPase activity of TFIIH (TFIIH): only a small fraction of the activity was affected; also recorded: does not inhibit
IC50 (DLD-1 WT cells): 1300 nM
stability in human serum [1]: remained largely intact
IC50 (PC3 cells; PC3, hypoxic conditions (1% O2)): 81 nM
IC50 (PC3 cells; PC3, normoxic conditions (20% O2)): 427 nM
fold enhancement of anti-proliferative effect during hypoxia (PC3 cells; PC3, hypoxia versus normoxia): five-fold
percentage of cells with nuclear fragmentation (HeLa cells; HeLa, 1 (unit uncertain) compound 1): 23%
cytochrome c release from mitochondria to cytosol (HeLa cells; [3]): triggers the release of cytochrome c
percentage of cells with nuclear fragmentation (HeLa cells; [3]): 53%
caspase-3 activation (HeLa cells; HeLa, western blot): activated caspase-3 dose dependently
PARP1 cleavage (HeLa cells; increasing concentrations of compound 1, western blot): Pronounced PARP1 cleavage
endogenous RNAPII (RPB1) level [2]: depletes endogenous RNA polymerase II
